The results in this text go back to US9518000B2, “Bicyclo [2.2.1] acid GPR120 modulators” (BRISTOL-MYERS SQUIBB COMPANY, priority 2013, dated 2016).

The target in the experiment is human GPR120 (Homo sapiens (Human), UniProt Q5NUL3). Briefly: GPR120 pERK AlphaScreen SureFire Assay (human GPR120 pERK assay). The experiment is classed as cell-based. To be noted: CHOA12 or CHO-K1 cells stably transfected with the short form of human GPR120 receptor; phosphorylated ERK; read-out: EC50 values measured in the human GPR120 pERK assay. An excerpt: GPR120 activity was monitored by measuring phosphorylation of ERK (pERK), since G protein receptors are known to activate the ERK signaling cascade either directly and/or through recruitment of arrestin that serves as a scaffold for downstream signaling events.
Sequence of human GPR120 (Q5NUL3 whole entry): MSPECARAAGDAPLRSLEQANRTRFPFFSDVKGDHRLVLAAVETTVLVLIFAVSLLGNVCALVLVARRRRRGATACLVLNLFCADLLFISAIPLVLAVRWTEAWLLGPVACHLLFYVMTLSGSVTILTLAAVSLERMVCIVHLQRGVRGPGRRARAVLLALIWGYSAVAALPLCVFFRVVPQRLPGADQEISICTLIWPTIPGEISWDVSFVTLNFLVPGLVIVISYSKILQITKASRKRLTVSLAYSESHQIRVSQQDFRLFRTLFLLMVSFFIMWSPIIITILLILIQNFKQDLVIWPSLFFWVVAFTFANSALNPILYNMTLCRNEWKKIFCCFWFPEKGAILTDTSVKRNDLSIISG
GPR120 pERK AlphaScreen SureFire Assay
The human and mouse GPR120-mediated intracellular phosphorylated ERK assays were established using CHOA12 cells stably transfected with the short form of human or mouse GPR120 receptor. Cells were cultured in growth medium consisting of F-12 media (Invitrogen Cat. #11765) with 5% Charcoal/Dextran FBS (Invitrogen Cat. #12676-029), 500 μg/mL GENETICIN® (Life Technologies Cat. #10131-027) and 250 μg/mL Zeocin (Invitrogen Cat. #R250-01). Cells were cryo preserved at a concentration of 2×10^7 cells/mL, in 90% Charcoal/Dextran FBS and 10% DMSO, and frozen in liquid nitrogen at a low passage number.
For the pERK assay, 2×10^7 cells/mL cryopreserved human and mouse cells were thawed rapidly in a 37° C. water bath and added to a T-225 flask containing 50 mL growth medium. The flasks were placed in a tissue culture incubator overnight (37° C., 5% CO2). The next day, cells were harvested with trypsin (Gibco Cat. #25300-054), resuspended in serum-containing growth medium and counted using a Cellometer and volume adjusted to a concentration of 0.6×10^6 cells/mL. Cells were plated into 384-well clear bottom tissue culture plates (BD Cat. #353962) at 50 μL/well, for a density of 30,000 cells/well using a MULTIDROP® and incubated for 16-18 hours (overnight) at 37° C. with 5% CO2. The next day, cells were serum starved in 30 μL of F-12 media without any serum or antibiotics for 2 hours at 37° C.
Test compounds were 3-fold, 11-point serially diluted in DMSO in a REMP assay plate (Matrix Cat. #4307) by Tecan and 5 μL was transferred into an ECHO source plate (LabCyte Cat. #LC-0200). Cells were then stimulated with 50 nL of compound dilutions using ECHO liquid handler for 7 minutes at 37° C. Compounds ranged from final assay concentrations of 33.33 μM to 0.56 nM.
The media was then dumped and cells lysed with 20 μL of 1× Lysis buffer from the AlphaScreen SureFire Phospho-ERK 1/2 Kit (Perkin Elmer Cat. #6760617M). The lysis buffer was diluted 5-fold with water before use. The plate was agitated on a shaker for 10 minutes after which 2 μL was transferred into a 384-well white proxiplate (Perkin Elmer Cat. #6008289). The SureFire assay reagent mix was prepared by mixing 60 parts Reaction Buffer, 10 parts Activation Buffer, 1 part Donor Beads, 1 part Acceptor Beads (Perkin Elmer Cat. #TGRES10K). 3.5 μL/well of this reagent mix was manually added to the proxiplate with a multichannel pipettor. Plates were spun down at 1000 rpm for 2 minutes, followed by light-protected incubation at room temperature for 2 hours. The plates were read on the Alpha-technology compatible Envision multilabel plate reader using AlphaScreen protocol according to manufacturer's specifications. The agonist effect of compounds was expressed as 100×(average sample-average blank)/(average total−average blank) where sample is the luminescence activity in the presence of test compound, blank is equal to the luminescence activity in the presence of DMSO control and the total is signal induced by 50 μM linolenic acid as reference compound. Activation data for the test compound over a range of concentrations was plotted as percentage activation of the test compound (100%=maximum response). After correcting for background, EC50 values were determined. The EC50 is defined as the concentration of test compound which produces 50% of the maximal response and was quantified using the 4 parameter logistic equation to fit the data.
The human and mouse GPR120-mediated intracellular phosphorylated ERK assays were also established using CHO-K1 cells stably transfected with the short form of human or mouse GPR120 receptor. […]

With `COc1ccc(F)c(COC23CCC(CCCC(=O)O)(CC2)C3)c1` [Example 2, 4-(4-(2-fluoro-5-methoxybenzyl-oxy)bicyclo [2.2.1]heptan-1-yl)butanoic acid], the EC50 was 1820 nM.

As for `Cc1cc(COC23CCC(CCCC(=O)O)(CC2)C3)cc(OC(F)(F)F)c1` [Example 7, 4-(4-(3-methyl-5-(trifluorometh-oxy)benzyloxy)bicyclo[2.2.1]heptan-1-yl) butanoic acid], the EC50 was determined as 230 nM.

As for `CC1(C)Cc2cc(Cl)cc(COC34CCC(CCCO)(CC3)C4)c2O1` [Example 70, 3-(4-((5-Chloro-2,2-dimethyl-2,3-dihydrobenzofuran-7-yl)methoxy)bicyclo[2.2.1]heptan-1-yl)propan-1-ol], the EC50 worked out at 7250 nM.

As for `CC(CCC12CCC(OCc3ccccc3Oc3ccccc3)(CC1)C2)C(=O)O` (stereo not shown) [Example 68, 2-Methyl-4-(4-(2-phenoxybenzyloxy)bicyclo[2.2.1]heptan-1-yl)butanoic acid], the EC50 was 1000 nM.

Consider `O=C(O)CCCC12CCC(OCc3cc(C(F)(F)F)ccc3Cl)(CC1)C2` [Example 63, 4-(4-(2-chloro-5-(trifluoromethyl)benzyloxy)bicyclo[2.2.1]heptan-1-yl) butanoic acid], for which the EC50 was found to be 2470 nM.

On to `O=C(O)CCCC12CCC(OCc3cccc(SC(F)(F)F)c3)(CC1)C2` [Example 50, 4-(4-(3-(trifluoro-methylthio)benzyloxy)bicyclo[2.2.1]heptan-1-yl) butanoic acid], for which the EC50 turned out to be 540 nM.

With `OCC(O)CCC12CCC(OCc3cc(F)cc(Oc4ccccc4)c3)(CC1)C2` (single isomer, unassigned) [Example 96, 4-(4-((3-Fluoro-5-phenoxybenzyl)oxy)bicyclo[2.2.1]heptan-1-yl)butane-1,2-diol], the EC50 was found to be 380 nM.

Regarding “3-(4-(1-(3-fluoro-5-(4- fluorophenoxy)phenyl)ethoxy) bicyclo[2.2.1]heptan-1-yloxy) propanoic acid [Example 82]”, the EC50 turned out to be 980 nM.

With `O=C(O)CCCC12CCC(OCc3ccc(Cl)cc3)(CC1)C2` [Example 24, 4-(4-(4-chloro-benzyloxy)bicyclo[2.2.1]heptan-1-yl) butanoic acid], the EC50 stood at 2800 nM.

For `O=C(O)CCCC12CCC(OCc3ccsc3Br)(CC1)C2` [Example 54, 4-(4-((2-bromo-thiophen-3-yl)methoxy)bicyclo [2.2.1]heptan-1-yl)butanoic acid], the EC50 was determined as 1690 nM.

Regarding `O=C(O)CCCC12CCC(OCc3c(F)ccc(F)c3Cl)(CC1)C2` [Example 56, 4-(4-(2-chloro-3,6-difluorobenzyl-oxy)bicyclo [2.2.1]heptan-1-yl)butanoic acid], the EC50 amounted to 1880 nM.

For `O=C(O)CCCC12CCC(OCc3cc(OC(F)(F)F)ccc3F)(CC1)C2` [Example 33, 4-(4-(2-fluoro-5-(trifluorometh-oxy)benzyloxy)bicyclo[2.2.1]heptan-1-yl) butanoic acid], the EC50 was 260 nM.

For the compound `O=C(O)CCCC12CCC(OCc3cccc(Cl)c3F)(CC1)C2` [Example 45, 4-(4-(3-chloro-2-fluorobenzyl-oxy)bicyclo [2.2.1]heptan-1-yl)butanoic acid], the EC50 was found to be 710 nM.

Turning to `O=C(O)CCCC12CCC(OCc3ccccc3Oc3ccccc3)(CC1)C2` [Example 14, 4-(4-(2-phenoxy-benzyloxy)bicyclo[2.2.1]heptan-1-yl) butanoic acid], the EC50 is 270 nM.

Take “4-(4-(2-(trifluoro- methoxy) benzoyloxy) bicyclo[2.2.1] heptan-1-yl) butanoic acid [Example 20]”: the EC50 came to 710 nM.

Take `O=C(O)CCCC12CCC(OCc3cc(F)cc(C(F)(F)F)c3)(CC1)C2` [Example 25, 4-(4-(3-fluoro-5-(trifluoromethyl)benzyloxy)bicyclo[2.2.1]heptan-1-yl) butanoic acid]: the EC50 was determined as 640 nM.

As for `O=C(O)CCCC12CCC(OC3CCc4c(Cl)cc(Cl)cc43)(CC1)C2` (stereo not shown) [Example 9, 4-(4-(4,6-dichloro-2,3-dihydro-1H-inden-1-yloxy)bicyclo[2.2.1]heptan-1-yl) butanoic acid], the EC50 amounted to 600 nM.

For the compound `Cc1nc(-c2cccc(COC34CCC(CCCC(=O)O)(CC3)C4)c2)no1` [Example 37, 4-(4-(3-(5-methyl-1,2,4-oxadiazol-3-yl)benzyloxy)bicyclo[2.2.1]heptan-1-yl) butanoic acid], the EC50 is 3120 nM.

As for `OCCC12CCC(OCc3cc(F)cc(Oc4ccccc4)c3)(CC1)C2` [Example 99, 2-(4-((3-Fluoro-5-phenoxybenzyl)oxy)bicyclo[2.2.1]heptan-1-yl)ethanol], the EC50 was determined as 6360 nM.

Take `CC(C)Oc1cccc(COC23CCC(CCCC(=O)O)(CC2)C3)c1` [Example 38, 4-(4-(3-isopropoxy-benzyloxy)bicyclo [2.2.1]heptan-1-yl)butanoic acid]: the EC50 is 1680 nM.

As for `O=C(O)CCCC12CCC(OCc3cccc(C(=O)c4ccccc4)c3)(CC1)C2` [Example 39, 4-(4-(3-benzoyl-benzyloxy)bicyclo[2.2.1]heptan-1-yl) butanoic acid], the EC50 amounted to 820 nM.

As for `O=C(O)CCCC12CCC(OCc3cc(Cl)ccc3OC(F)(F)F)(CC1)C2` [Example 19, 4-(4-(5-chloro-2-(trifluorometh-oxy)benzyloxy)bicyclo[2.2.1]heptan-1-yl) butanoic acid], the EC50 worked out at 520 nM.

As for `Cc1cc(COC23CCC(CCCC(=O)O)(CC2)C3)n(-c2ccc(Cl)cc2)n1` [Example 1, 4-(4-((1-(4-Chlorophenyl)-3-methyl-1H-pyrazol-5-yl)methoxy)bicyclo[2.2.1]heptan-1-yl) butanoic acid], the EC50 amounted to 1560 nM.

Regarding `CC1(C)Cc2cc(Cl)cc(COC34CCC(CCCC(=O)O)(CC3)C4)c2O1` [Example 3, 4-(4-((5-chloro-2,2-dimethyl-2,3-dihydro-benzofuran-7-yl)methoxy)bicyclo[2.2.1]heptan-1-yl) butanoic acid], the concentration for a half-maximal effect (EC50) was determined as 530 nM.

For the compound `O=C(O)CCCC12CCC(OCc3ccc(Cl)cc3Cl)(CC1)C2` [Example 41, 4-(4-(2,4-dichlorobenzyloxy)bicyclo[2.2.1]heptan-1-yl) butanoic acid], the EC50 stood at 1100 nM.

In the case of `O=C(O)CCCC12CCC(OCc3c(F)ccc(F)c3F)(CC1)C2` [Example 47, 4-(4-(2,3,6-trifluorobenzyl-oxy)bicyclo [2.2.1]heptan-1-yl)butanoic acid], the EC50 amounted to 7810 nM.

With `CSc1nccc(COC23CCC(CCCC(=O)O)(CC2)C3)n1` [Example 67, 4-(4-((2-(methylthio)pyrimidin-4-yl)methoxy)bicyclo[2.2.1]heptan-1-yl) butanoic acid], the EC50 was 4960 nM.

With `COc1cc(COC23CCC(CCCC(=O)O)(CC2)C3)cc(OC)c1` [Example 21, 4-(4-(3,5-dimethoxybenzyl-oxy)bicyclo [2.2.1]heptan-1-yl)butanoic acid], the EC50 was 1920 nM.

In the case of `CC1(C)Cc2cc(Cl)cc(COC34CCC(COCC(=O)O)(CC3)C4)c2O1` [Example 77, 2-((4-((5-chloro-2,2-dimethyl-2,3-dihydrobenzofuran-7-yl)methoxy)bicyclo[2.2.1]heptan-1-yl)methoxy)acetic acid], the EC50 was 4530 nM.

For the compound `O=C(O)CCCC12CCC(OCc3cc(F)cc(Oc4ccccc4)c3)(CC1)C2` [Example 34, 4-(4-(3-fluoro-5-phenoxybenzyl-oxy)bicyclo [2.2.1]heptan-1-yl)butanoic acid], the EC50 came out at 400 nM.

Regarding “3-(4-(2-phenoxybenzyloxy) bicyclo[2.2.1]heptan-1-yloxy) propanoic acid [Example 80]”, the EC50 was determined as 2750 nM.
